In general, melting point refers to the temperature, or range, at which the solid turns liquid.

SMILES strings stand for the structures. Where only a bound is given, the exact number is not on record here.

`Cc1nc2nc(SCc3ccccc3)nn2c(C)c1Cl` registered a melting point of 164 to 166 °C. The value for `CC1(C)CCCC(C)(C)N1c1nc(NCCO)nc(NCCO)n1` was 147 to 148 °C. The value for `CCCc1nc2c(N)nc3ccc(C)cc3c2s1` was 147 to 149 °C; that for `CSc1ncc(O)c(O)n1` was 213 to 215 °C. `Cc1ccccc1C(=O)Cc1ccncc1`: the melting point lay in the range of 118 to 119 °C. The value for `COc1cc2c(=O)cc3c4ccccc4sn3c2c(OC)c1OC` was 196 °C; that for `O=C1CCC(N2C(=O)c3ccc(CNCc4cc5ccccc5o4)cc3C2=O)C(=O)N1` (stereo not given) was 133 to 135 °C.

With `CCOC(=O)CC(=Nc1cc([N+](=O)[O-])ccc1Cl)OC`, the melting point was 60 to 62 °C.

The compound `Cc1cc(C(N)=O)ccc1N` registered a melting point of 124 °C. `CC(OCc1cc2cc(C(F)(F)F)ccc2n1S(=O)(=O)c1ccc2c(c1)OCCO2)C(=O)O` (stereo not given) showed a melting point of 70 °C.

Consider `COC(=O)C=C1CN=C(c2ccccc2F)c2cc(Cl)ccc2N1`, for which the melting point is 158 to 160 °C.

Turning to `CCc1cccc(CNC(=O)c2nc3scc(COCc4ccc(C(=O)O)cc4)c3c(=O)[nH]2)c1`, the melting point was 240 to 242 °C. As to `Cc1cccc(C(=O)O)c1-c1ccc(C(F)(F)F)cc1`, the melting point lay in the range of 202 to 203 °C.

For the compound `CCOC(=O)c1ccc(OCCCCl)cc1`, the melting point was in the range of 24 to 25 °C. The result for `O=C(Cc1ccc(-n2ccnc2)cc1)NOc1ccccn1` reads 110 °C; that for `CCOC(=O)c1cnc(SC)nc1NCc1ccc(OC)c([N+](=O)[O-])c1`, 99 to 100 °C; that for `CSc1ccc(C2=C(c3ccc(F)cc3)CCC2)cc1`, 46 to 47 °C. The result for `CCOc1ccc2nc(N)c3nc4n(c3c2c1)C(C)COC4` (stereo not given) reads 187 to 188 °C; that for `NC1=NS(=O)N=C1NCCSCc1ccc(CN2CCCCC2)o1` (stereo not given), 161 to 163 °C; that for `CN(C)CCCCNc1ncc2c(n1)-c1ccccc1C(c1cccc(Br)c1)C2` (stereo not given), 115 to 117 °C. The result for `CCc1cn(C2CC(O)C(CN=[N+]=[N-])O2)c(=O)[nH]c1=O` (stereo not given) reads 174 to 177 °C; that for `Cc1ccc2c(c1)C=Cc1cc(C)ccc1C2c1cn(-c2ccnc(NCC(=O)O)n2)c(=O)[nH]c1=O`, 260 to 263 °C. In turn, `Fc1cc(F)c(N=C2NCCN2)c(F)c1F` yielded a melting point of 167 to 168 °C. With `CN1CCC(O)(c2ccccc2C(O)c2ccccc2)CC1` (stereo not given), the melting point lay within 190 to 191 °C.

The compound `O=C(NC(=O)c1ccccc1Cl)C(=C1NCCCS1)[N+](=O)[O-]` registered a melting point of 130 to 131 °C. The result for `CCOC(=O)C1=C(C)NC(N)(c2nc(-c3cccc(C(F)(F)F)c3)cs2)N=C1` (stereo not given) reads 227 to 229 °C.

For `COC(=O)c1cc(CC(C)NCC(O)c2ccc(O)c(CO)c2)ccc1O` (stereo not given), the melting point was 65 to 69 °C. Compound `CC(=O)NC[C@H]1CN(c2ccc(-n3nccc3-c3ccccn3)c(F)c2)C(=O)O1` had a melting point of 79.9 to 82.1 °C. As for `CSC1(SC)C(=O)CC2C3CCC4=CC(=O)C=CC4(C)C3(F)C(OC(C)=O)CC21C` (stereo not given), the melting point is 225 to 227 °C. The result for `CC(CSCCSCCSCC(C)C(=O)Nc1ccc(Nc2ccccc2)cc1)C(=O)Nc1ccc(Nc2ccccc2)cc1` (stereo not given) reads 131 to 134 °C; that for `COc1ccc2c(c1)cc(-c1ccccc1)n2-c1ccc(O)cc1`, 200 to 201 °C. The value for `COc1cc(OC)cc(Oc2ncccc2OCCCc2ccncc2O)c1` was 172 to 178 °C; that for `C[C@@H]1CCC[C@H](C)N1CCCNC(=O)CN1C(=O)CCC1(C)C` was 86 to 87 °C.

Compound `COc1ccccc1Nc1ccc2c(c1)OCc1cc(N)ccc1C2=O` came in with a melting point of 68.4 °C.

`CCCCCCCCCCCCCCCC(=O)NCCCSc1ccncc1` came in with a melting point of 84 to 85 °C. In turn, `CC(=O)OCC1OC(n2cc(C(Br)=CBr)c(=O)[nH]c2=O)CC1OC(C)=O` (stereo not given) showed a melting point of 79 to 81 °C. The compound `CNC(=O)Oc1ccccc1` registered a melting point of 84 to 85 °C. As to `S=c1c2cccnc2c(-c2cccc(Cl)c2)nn1Cc1ccccc1`, the melting point amounted to 132 °C. The result for `c1cc2c(s1)CNCCS2` reads 138 to 139 °C; that for `CN1CCC(c2nn(-c3cccc(C(F)(F)F)c3)c3ccccc23)CC1`, 103 to 105 °C. The value for `O=C1NCCN1c1ccc(S(=O)(=O)Nc2cccc(Cl)c2)cc1` was 180 to 182 °C; that for `CCCCCCCCCCCCc1cc(NC(=O)Nc2c(C(C)C)cccc2C(C)C)on1` was 112 to 114 °C; that for `COc1ccc(C=C2Cc3c(C)cc(C)c(O)c3C2=O)cc1` was 192 to 193 °C. As for `COc1ccc(N2CCCn3c2nc2c(Cl)ccc(C(OCC(F)F)C4CC4)c23)c(C)n1` (stereo not given), the melting point fell in the range of 124 to 126 °C. The value for `COc1cc2nc(N3CCCN(C(=O)C=Cc4cccnc4)CC3)nc(N)c2cc1OC` was 141 to 143 °C; that for `CC(=O)c1cccc(N=P(c2ccccc2)(c2ccccc2)c2ccccc2)c1` was 135 to 136 °C; that for `COc1cccc2c1CC(C(=O)NCCOc1ccc(C(=O)OC(C)(C)C)cc1)N2S(=O)(=O)c1ccc(-c2ccc(F)cc2F)cc1` (stereo not given) was 135 °C.

For `Cn1c(=O)cc(CCc2ccc(Cl)s2)c2cc(C(N)(c3ccc(Cl)cc3)c3cccnc3)ccc21` (stereo not given), the melting point was found to be 100 °C. For `Cc1ccc(Sc2ccccc2C(=O)N(C)C)c([N+](=O)[O-])c1`, the melting point was 105 to 106 °C.

With `C#Cc1cnn(-c2ccnc3cc(Cl)ccc23)c1`, the melting point was 174 to 175 °C.

With `CCCCCCCCCCCCCCCC[C@]1(CO)CC(=O)N1`, the melting point is 82 °C. Turning to `Nc1ccccc1Oc1ncc(C(F)(F)F)cc1Cl`, the melting point lay in the range of 133 to 135 °C. For the compound `S=C1NCC2c3ccccc3Cc3ccccc3N12` (stereo not given), the melting point is 222 to 224 °C. The result for `CCCCc1oc2ccccc2c1C(=O)c1ccc(O)cc1` reads 119 °C.

In turn, `COc1ccc2c(c1)nc(Cn1ccnc1)n2-c1ccccc1` came in with a melting point of 104 to 106 °C.

Take `CC(C)(C)OC(=O)N1C[C@@H]2SCCC(c3ccccc3)(c3ccccc3)[C@@H]2C1` (racemic): the melting point was 162 °C. The result for `OC1CCCc2nc3cc(Cl)ccc3c(NCc3ccc(F)cc3)c21` (stereo not given) reads 187 to 188 °C; that for `Ic1ccc2c(c1)ncn2-c1cccc(-n2cccn2)c1`, 209 to 211 °C; that for `COc1ncnc(-c2cc([N+](=O)[O-])c(F)cc2F)c1C`, 114 to 117 °C.

For `CCOC(=O)c1c(-c2ccccc2Cl)c2cc(CC)sc2n(C)c1=O`, the melting point lay within 105 to 106 °C. The result for `CS(=O)(=O)OCCCCC1C(=O)Nc2ccc(F)cc21` (stereo not given) reads 106 to 108 °C; that for `O=C(NOC(=O)C(F)(F)F)C(F)(F)F`, 40 to 50 °C. Compound `N=C(N)NC(=O)c1cn(-c2ccc3ccccc3n2)c2ncccc12` displayed a melting point of 242 °C.

Compound `CC1OC(n2cnc3c(Nc4ccccc4)ccnc32)C(O)C1O` (stereo not given) returned a melting point of 219 °C. With `Cc1noc2cc3c(cc12)C1(CO3)C(=O)N(Cc2cccnc2)c2ccccc21` (stereo not given), the melting point was 176 to 177 °C. The result for `CC(C)(C)OC(=O)NCC(=O)Oc1cccc(-c2cn3c(n2)sc2ccccc23)c1` reads 150 °C; that for `COC(=O)c1ccccc1-c1ccc(OC)cn1`, 130 to 132 °C; that for `COc1ccnc(CSc2nc3cc(OC(F)(F)F)ccc3[nH]2)c1`, 134 to 135 °C. As to `O=c1[nH][nH]c(=O)c2c(O)c3ccc([N+](=O)[O-])cc3nc12`, the melting point was over 400 °C. On to `CC(=O)c1ccc2c3c1ccn3C(=O)CNC2`, for which the melting point was in the range of 285 to 287 °C. The value for `O=CN1CCN(c2cc3c(cc2F)c(=O)c(C(=O)O)c2sccn23)CC1` was 335 to 336 °C; that for `CCOC(=O)c1cncn1C1CC(C)(C)Oc2ccccc21` (stereo not given) was 80.9 °C; that for `COc1cc(NC(=O)CCCCCBr)c2nccc(C)c2c1` was 111 to 113 °C. The value for `Cn1cnnc1SC1=C(c2cc(Cl)ccc2O)C2C=C(C(F)(F)F)C=CC2NC1=O` (stereo not given) was over 310 °C; that for `CCNC(=O)c1cccc2[nH]n(C)c(=O)c12` was 192 to 194 °C; that for `Cc1cc(SC(C)c2cccc3cn(-c4ccc(C(F)(F)F)cc4)nc23)ccc1OCC(=O)O` (stereo not given) was 62 to 64 °C. The result for `CCCCc1nc2cccc(C(=O)OC)c2n1Cc1ccc(-c2ccccc2-c2n[nH]c(=O)o2)cc1` reads 204 to 205 °C; that for `CC(C)(C)OC(=O)c1ncn2c1[C@@H]1CCCN1C(=O)c1cc(F)ccc1-2`, 154 to 155 °C. For `CC(O)Cc1cc([N+](=O)[O-])cc(N)c1N` (stereo not given), the melting point came to 174 °C. `CNc1cccc(-c2csc(NC(=N)N)n2)c1`: the melting point was in the range of 198 to 200 °C. `COc1cc(C(C)C)c2c(c1)S(=O)(=O)N(COc1cc(C(F)(F)F)nn1C)C2=O` came in with a melting point of 107 to 108 °C. The result for `O=S1(=O)c2cccc3cccc(c23)N1CCCCl` reads 78 °C; that for `COc1ccc(CCNC(=O)C(F)(F)F)cc1NS(C)(=O)=O`, 129 to 130 °C. As for `C=C1CC(Cn2cc(C)c(=O)[nH]c2=O)(c2ccc(-c3ccccc3)cc2)OC1=O` (stereo not given), the melting point lay within 217 to 219 °C. In the case of `O=C1NC=N[C@H]2CCCC[C@@H]12` (relative stereo), the melting point lay within 133 to 134 °C. The value for `CCOC(=O)Cn1cc(C(=O)OCC)c(=O)c2ccccc(=O)c21` was 152 to 154 °C; that for `CC(C)n1nc(C(Cl)C(=O)c2ccc(F)cc2)ccc1=O` (stereo not given) was 86.5 to 88 °C; that for `COC(=O)NNC(=S)Cc1ccc2ccccc2c1` was 129 to 131 °C. The value for `COc1cccc(NC(=O)C23CC4CC(CC(C4)C2)C3)c1` was 172 to 174 °C; that for `COC1CCN(c2c(Cl)cc3c4c(cccc24)C(=O)N(O)C3=O)C1` (stereo not given) was 136 to 142 °C.

The values are drawn from a melting point compilation (Tetko et al.; mined from patent text by program, amines drawn as free bases though some values may be those of a salt).
